In US20210196724A1, “BIARYL COMPOSITIONS AND METHODS FOR MODULATING A KINASE CASCADE” (Athenex, Inc., priority 2016, published 2021):

Columns and labels:
Format in all cases: cell-based
HL-60 cells = test: CellTiter-Glo cell viability, HL-60; conditions: Homo sapiens, 72 h
Experimental: (§1) The cell viability of 50 cancer cell lines was studied after treatment with Compound 121. Inhibition concentration values at 50% (IC50) were determined using CellTiter-Glo luminescent cell viability assay after incubation with different compound concentrations. GI50 values were determined according to the examples described above. Each cell line was treated with Compound 121, a standard chemotherapy drug as a reference control, and culture medium as a vehicle control.
(§2) All cells were cultured in media supplemented with 10-15% FBS at 37° C. in the presence of 5% CO2 and at 95% humidity. The culture medium was purchased from GIBCO or Sigma, USA. Cisplatin was chosen as the reference control and purchased from Hospira Australia Pty Ltd. The cell lines studied are presented in Table 5.
(§3) Cells were harvested during a logarithmic growth period and cell number count was determined using Count-star. Cell concentrations were adjusted to 4.44×10^4 cells/mL with respective culture medium. 90 μL of cell suspensions were added to two 96-well plates (plates A and B) with a final cell density of 4×10^3 cells/well.
(§4) 10 μL of culture medium was added to each well of plate A for TO reading. The plate was allowed to equilibrate at room temperature for approximately 30 min. 50 μL of CellTiter-Glo was added to each well and the contents were mixed for 5 min on an orbital shaker to induce cell lysis. The plate was allowed to incubate at room temperature for 20 min to stabilize luminescent signal.
(§5) 10 μM Compound 121 in media was serially diluted 3.16-fold to achieve 9 dose levels. Similarly, 100 μM reference control in media was serially diluted 3.16-fold to prepare reference control solutions. 10 μL drug solution and 10 μL of reference control was dispensed into each well in plate B.
(§6) Test plate B was incubated for 72 h in a humidified incubator at 37° C. in the presence of 5% CO2 and then subjected to CTG assay. The plate was allowed to equilibrate at room temperature for about 30 min. 50 μL of CellTiter-Glo was added to each well and the contents were mixed for 5 min on an orbital shaker to induce cell lysis. The plate was allowed to incubate at room temperature for 20 min to stabilize luminescent signal.
(§7) IC50 and GI50 values for each of the 50 cell lines are presented in Table 6 and were calculated based on the dose-response curves depicted in FIGS. 1-50. The dose-response curves were fitted using nonlinear regression model with a sigmoidal dose response. The formula for calculating survival rate was calculated by the formula:
(§8) Survival rate (%)=(LumTest article−LumMedium control)/(LumNone treated−LumMedium control)×100.

A-172 cells = test: CellTiter-Glo cell viability, A-172; conditions: Homo sapiens, 72 h
Experimental: as §1, §2, §3, §4, §5, §6, §7, §8

MDA-MB-453 cells = test: CellTiter-Glo cell viability, MDA-MB-453; conditions: Homo sapiens, 72 h
Experimental: as §1, §2, §3, §4, §5, §6, §7, §8

SCC-4 cells = test: CellTiter-Glo cell viability, SCC-4; conditions: Homo sapiens, 72 h
Experimental: as §1, §2, §3, §4, §5, §6, §7, §8

BT474 cells = test: CellTiter-Glo cell viability, BT474; conditions: Homo sapiens, BT-474, 72 h
Experimental: as §1, §2, §3, §4, §5, §6, §7, §8

HeLa cells = test: CellTiter-Glo cell viability, HeLa; conditions: Homo sapiens, 72 h
Experimental: as §1, §2, §3, §4, §5, §6, §7, §8

SW579 cells = test: CellTiter-Glo cell viability, SW579; conditions: 72 h
Experimental: as §1, §2, §3, §4, §5, §6, §7, §8

KP4 cells = test: CellTiter-Glo cell viability, KP4; conditions: Homo sapiens, KP-4, 72 h
Experimental: as §1, §2, §3, §4, §5, §6, §7, §8

NCI-H209 cells = test: CellTiter-Glo cell viability, NCI-H209; conditions: Homo sapiens, 72 h
Experimental: as §1, §2, §3, §4, §5, §6, §7, §8

NCI-H226 cells = test: CellTiter-Glo cell viability, NCI-H226; conditions: Homo sapiens, 72 h
Experimental: as §1, §2, §3, §4, §5, §6, §7, §8

SK-N-FI cells = test: CellTiter-Glo cell viability, SK-N-FI; conditions: Homo sapiens, 72 h
Experimental: as §1, §2, §3, §4, §5, §6, §7, §8

MDA-MB-231 cells = test: CellTiter-Glo cell viability, MDA-MB-231; conditions: Homo sapiens, 72 h
Experimental: as §1, §2, §3, §4, §5, §6, §7, §8

AN3 CA cells = test: CellTiter-Glo cell viability, AN3 CA; conditions: Homo sapiens, 72 h
Experimental: as §1, §2, §3, §4, §5, §6, §7, §8

NCI-H1155 cells = test: CellTiter-Glo cell viability, NCI-H1155; conditions: Homo sapiens, 72 h
Experimental: as §1, §2, §3, §4, §5, §6, §7, §8

A-673 cells = test: CellTiter-Glo cell viability, A-673; conditions: Homo sapiens, A673, 72 h
Experimental: as §1, §2, §3, §4, §5, §6, §7, §8

HuT 78 cells = test: CellTiter-Glo cell viability, HuT 78; conditions: Homo sapiens, HuT78, 72 h
Experimental: as §1, §2, §3, §4, §5, §6, §7, §8

786-O cells = test: CellTiter-Glo cell viability, 786-O; conditions: Homo sapiens, 786-0, 72 h
Experimental: as §1, §2, §3, §4, §5, §6, §7, §8

JHH-5 cells = test: CellTiter-Glo cell viability, JHH-5; conditions: 72 h
Experimental: as §1, §2, §3, §4, §5, §6, §7, §8

HCT-116 cells = test: CellTiter-Glo cell viability, HCT-116; conditions: Homo sapiens, 72 h
Experimental: as §1, §2, §3, §4, §5, §6, §7, §8

KYSE-150 cells = test: CellTiter-Glo cell viability, KYSE-150; conditions: Homo sapiens, 72 h
Experimental: as §1, §2, §3, §4, §5, §6, §7, §8

HT-1080 cells = test: CellTiter-Glo cell viability, HT-1080; conditions: Homo sapiens, 72 h
Experimental: as §1, §2, §3, §4, §5, §6, §7, §8

[1] = top conc. 10 μM Compound 121, 100 μM cisplatin

Q: Which results are given for `Cc1cc(N2CCOC[C@@H]2C)ccc1-c1ccc(CC(=O)NCc2ccc(F)cc2)nc1` [Compound 121]?
A: GI50 (HL-60 cells; read-out: Absolute GI50): 7 nM; IC50 (HL-60 cells; read-out: Absolute IC50): 8 nM; inhibition at 10 µM (HL-60 cells; [1]): 99.8%; GI50 (A-172 cells; read-out: Absolute GI50): 6 nM; IC50 (A-172 cells; read-out: Absolute IC50): 7 nM; inhibition at 10 µM (A-172 cells; [1]): 92.8%; GI50 (MDA-MB-453 cells; read-out: Absolute GI50): 4 nM; IC50 (MDA-MB-453 cells; read-out: Absolute IC50): 4 nM; inhibition at 10 µM (MDA-MB-453 cells; [1]): 67.5%; GI50 (SCC-4 cells; read-out: Absolute GI50): 5 nM; IC50 (SCC-4 cells; read-out: Absolute IC50): 6 nM; inhibition at 10 µM (SCC-4 cells; [1]): 86.1%; GI50 (BT474 cells; read-out: Absolute GI50): 12 nM; IC50 (BT474 cells; read-out: Absolute IC50): > 10000 nM; inhibition at 10 µM (BT474 cells; [1]): 37.9%; GI50 (HeLa cells; read-out: Absolute GI50): 4 nM; IC50 (HeLa cells; read-out: Absolute IC50): 4 nM; inhibition at 10 µM (HeLa cells; [1]): 89.5%; GI50 (SW579 cells; read-out: Absolute GI50): 6 nM; IC50 (SW579 cells; read-out: Absolute IC50): 7 nM; inhibition at 10 µM (SW579 cells; [1]): 88.2%; GI50 (KP4 cells; read-out: Absolute GI50): 7 nM; IC50 (KP4 cells; read-out: Absolute IC50): 8 nM; inhibition at 10 µM (KP4 cells; [1]): 90.8%; GI50 (NCI-H209 cells; read-out: Absolute GI50): 17 nM; IC50 (NCI-H209 cells; read-out: Absolute IC50): 20 nM; inhibition at 10 µM (NCI-H209 cells; [1]): 73.7%; GI50 (NCI-H226 cells; read-out: Absolute GI50): 10 nM; IC50 (NCI-H226 cells; read-out: Absolute IC50): 13 nM; inhibition at 10 µM (NCI-H226 cells; [1]): 61.7%; GI50 (SK-N-FI cells; read-out: Absolute GI50): 3 nM; IC50 (SK-N-FI cells; read-out: Absolute IC50): 4 nM; inhibition at 10 µM (SK-N-FI cells; [1]): 91.4%; GI50 (MDA-MB-231 cells; read-out: Absolute GI50): 20 nM; IC50 (MDA-MB-231 cells; read-out: Absolute IC50): > 10000 nM; inhibition at 10 µM (MDA-MB-231 cells; [1]): 45.8%; GI50 (AN3 CA cells; read-out: Absolute GI50): 5 nM; IC50 (AN3 CA cells; read-out: Absolute IC50): 5 nM; inhibition at 10 µM (AN3 CA cells; [1]): 98.6%; GI50 (NCI-H1155 cells; read-out: Absolute GI50): 6 nM; IC50 (NCI-H1155 cells; read-out: Absolute IC50): 7 nM; inhibition at 10 µM (NCI-H1155 cells; [1]): 87.3%; GI50 (A-673 cells; read-out: Absolute GI50): 3 nM; IC50 (A-673 cells; read-out: Absolute IC50): 4 nM; inhibition at 10 µM (A-673 cells; [1]): 86.1%; GI50 (HuT 78 cells; read-out: Absolute GI50): 8 nM; IC50 (HuT 78 cells; read-out: Absolute IC50): 9 nM; inhibition at 10 µM (HuT 78 cells; [1]): 95.2%; GI50 (786-O cells; read-out: Absolute GI50): 5 nM; IC50 (786-O cells; read-out: Absolute IC50): 5 nM; inhibition at 10 µM (786-O cells; [1]): 85.3%; GI50 (JHH-5 cells; read-out: Absolute GI50): 7 nM; IC50 (JHH-5 cells; read-out: Absolute IC50): 7 nM; inhibition at 10 µM (JHH-5 cells; [1]): 80.5%; GI50 (HCT-116 cells; read-out: Absolute GI50): 9 nM; IC50 (HCT-116 cells; read-out: Absolute IC50): 9 nM; inhibition at 10 µM (HCT-116 cells; [1]): 94.4%; GI50 (KYSE-150 cells; read-out: Absolute GI50): 5 nM; IC50 (KYSE-150 cells; read-out: Absolute IC50): 6 nM; inhibition at 10 µM (KYSE-150 cells; [1]): 80%; GI50 (HT-1080 cells; read-out: Absolute GI50): 5 nM; IC50 (HT-1080 cells; read-out: Absolute IC50): 5 nM; inhibition at 10 µM (HT-1080 cells; [1]): 97.2%
